From patent publication US20150374673A1, “Combination Therapy for the Treatment of Nosocomial Pneumonia” (priority 2013, published 2015)

Key:
[1] = Serum and epithelial lining fluid (ELF) pharmacokinetics of ceftazidime-avibactam human simulated regimen in infected and uninfected mice; conditions: for fT > MIC: human simulated CAZ-AVI 2000-500 mg q8h 2 h infusion; for Kp at 16 h / Kp at 18.5 h / Kp at 22 h / Kp at 24 h: female, ICR, mouse, epithelial lining fluid (ELF) vs serum, ELF point Penetration Ratio, ELF vs serum, third dosing interval
Protocol: Pathogen-free, female ICR mice weighing approximately 25 g were acquired from Harlan Sprague Dawley, Inc. (Indianapolis, Ind.) and utilized throughout these experiments. Animals were maintained and used in accordance to National Research Council recommendations, and provided food and water ad libitum. Mice were rendered neutropenic with 100 and 250 mg/kg intraperitoneal injections of cyclophosphamide (Cytoxan®; Bristol-Myers Squibb, Princeton, N.J.) given one and four days prior to inoculation, respectively. Three days prior to inoculation, mice were also given a single 5 mg/kg intraperitoneal injection of uranyl nitrate. This produces a predictable degree of renal impairment to slow drug clearance. Two hours prior to the initiation of antimicrobial therapy, mice were lightly anesthetized using isofluorane (2.5% v/v in 100% oxygen carrier) until the respiratory rate decreased upon visual inspection. Pneumonia was induced by the instillation of 0.05 mL of a 10^7 CFU inoculum of the test isolate suspended in 3% mucin in normal saline. While the mouse is anesthetized, the inoculum is delivered into the animal's oral cavity, blocking the nares and holding the mouse in a vertical position. Aspiration of bacteria into the lungs occurred as the animals began to spontaneously respire.
In these studies, we utilized the previously determined dosing regimen described above. Confirmatory serum pharmacokinetic studies were undertaken in infected mice. For these studies, infected neutropenic mice were dosed with the above calculated regimen and groups of six mice ? were euthanized at multiple time points throughout a 24 h period to confirm target exposures blood was collected via cardiac puncture and the serum samples were stored at −80° C. until analysis. Pharmacokinetic studies were undertaken to describe the epithelial lining fluid concentrations in infected mice. For these studies, infected neutropenic mice were dosed with the above calculated regimen and groups of six mice were euthanized at multiple time points throughout the third dosing period (i.e. 16-24 h). Once euthanized, serum and BAL samples were collected as described above. Serum and BAL samples were stored at −80° C. until analysis.

P. aeruginosa = assay: Neutropenic thigh infection model (CD-1 mice), exposure response of ceftazidime q2h and avibactam; assay type: in vivo, Pseudomonas aeruginosa; conditions: for static % fT > MIC (CAZ): ceftazidime monotherapy q2h; for % fT>CT required to support a bacteriostatic effect: CT 1 mg/L; for Emax model maximum / Emax model minimum: ceftazidime q2h and avibactam q2h, SE between brackets; for % fT > CT1 of avibactam associated with 24-h stasis: CT1 = threshold concentration of 1 mg/L
Protocol: CD-1 neutropenic mice were infected with appr. 10^6 cfu β-lactamase-producing P. aeruginosa strains in the thigh.
Outbred female CD-1 mice (Charles River, Netherlands), 4 to 5 weeks old, weighing 20 to 25 g were used in the experiments. Granulocytopenia was induced by two doses of cyclophosphamide s.c.: one at four days (150 mg/kg) and the other at one day (100 mg/kg) before the infection experiment.
The neutropenic mice were infected with 2 P. aeruginosa strains per animal, one in the left and one in the right thigh. 0.05 mL of bacterial suspension consisting of approximately 10^5-10^6 bacteria was inoculated intramuscularly. […] All dosing regimens were performed in at least two animals. At t=0 h, 2 mice were humanely sacrificed to determine the initial inoculum just before treatment. All other animals were sacrificed at t=24 h unless the welfare of the animals indicated earlier termination was necessary, following animal welfare regulations. Thighs were taken and moved to a pre-cooled 10-mL plastic tube (Transport Tube, Omnilabo, NL) ? containing 2 mL phosphate buffered saline (PBS; NaCl 8.00 g/L, Na2HPO42H2 1.44 g/L, KH2PO4 0.26 g/L, pH 7.2-7.4). Subsequently thighs were ground using an Ultra-Turrax (IKA Labortechnik, Germany). A tenfold dilution series was prepared and 3×10 μL plated (Chromagar, Biomerieux, NL) per dilution. The following day, colonies were counted and the number of cfu per thigh calculated. The drug effect was then determined as the difference between the log10[cfu/thigh] values at t=24 h and t=0 h (mean value of 2 mice) expressed as “dcfu”.
The amount of avibactam administered varied in frequency and dose. […] The drug effect was determined as the difference between the log10 [cfu/thigh] values at t=24 h and t=0 h (mean value of 2 mice) expressed as dcfu. Free drug concentrations were used in all calculations. […] Oral presentation at the ? 52nd Interscience Conference on Antimicrobial Agents and Chemotherapy, San Francisco, Calif. Abstract #A-1760).

[2] = test system: Gram-positive or Gram-negative bacterial strains; assay: MIC in pulmonary surfactant compared with CAMHB alone, whole strain panel; assay type: cell-based; conditions: up to 10% pulmonary surfactant vs CAMHB alone; any strain tested
Protocol: The bacterial strains used in this testing were part of the microbiological culture collection housed at AstraZeneca R&D Boston (AstraZeneca Research Collection, designated ARC). The panel of bacterial isolates used for this testing was comprised of five CLSI QC reference strains and the remainder were either recent clinical isolates expressing β-lactamases or isolates from the primary bacterial screening panels.
MIC values were determined using the CLSI broth microdilution methodology with slight variation. Stock compound mother plates were prepared and used to spot 2 μL aliquots of serial 2-fold drug dilutions to columns 1-11 of 96-well daughter plates using a Perkin-Elmer MiniTrak™ MultiPosition dispenser. […] An inoculum volume of 100 μL (5×10E^5 CFU/mL) in CAMHB containing 0, 1, 2.5, 5, or 10% pulmonary surfactant was added using a multichannel Finnpipette® to each well of the 96-well plate.
The minimum inhibitory concentration (MIC) values against each organism/drug combination were determined using broth microdilution methodology according to CLSI guidelines. The recommended reference bacterial strains for each test group and reference compounds were incorporated into each test. […]
MIC values for individual isolates were read visually. […]

[3] = Protein binding, equilibrium dialysis chamber, LC-MS/MS; assay type: in vitro ADME
Protocol: Blood was separated from plasma using a cooled centrifuge. Samples were split and stored at −80° C.

[4] = 6 P. aeruginosa strains, with fixed ceftazidime q2h, thigh
[5] = strain 1, thigh infection, Dose CAZ 32 mg/kg
[6] = strain 5, thigh infection, Dose CAZ 64 mg/kg
[7] = strain 7, thigh infection, Dose CAZ 64 mg/kg
[8] = strain 11, thigh infection, Dose CAZ 64 mg/kg
[9] = strain 18, thigh infection, Dose CAZ 64 mg/kg
[10] = strain 19, thigh infection, Dose CAZ 32 mg/kg

In the case of CC(C)(O/N=C(\C(=O)N[C@@H]1C(=O)N2C(C(=O)[O-])=C(C[n+]3ccccc3)CS[C@H]12)c1csc(N)n1)C(=O)O [ceftazidime, (6R,7R)-7-[[(2Z)-2-(2-amino-1,3-thiazol-4-yl)-2-(1-hydroxy-2-methyl-1-oxopropan-2-yl)oxyiminoacetyl]amino]-8-oxo-3-(pyridin-1-ium-1-ylmethyl)-5-thia-1-azabicyclo[4.2.0]oct-2-ene-2-carboxylate pentahydrate], the “fT > MIC” value ([1]; MIC 4, ELF, infected mice) is reported as 100%, the “fT > MIC” value ([1]; MIC 4, ELF, uninfected mice) is reported as 100% and the “fT > MIC” value ([1]; MIC 4, Serum, infected mice) is reported as 100%. For the same molecule, the “fT > MIC” value ([1]; MIC 4, Serum, uninfected mice) was 100%, the “fT > MIC” value ([1]; MIC 32, ELF, infected mice) was 0% and the “fT > MIC” value ([1]; MIC 32, ELF, uninfected mice) was 34%. For the same molecule, the “fT > MIC” value ([1]; MIC 32, Serum, infected mice) was 50%, the “fT > MIC” value ([1]; MIC 32, Serum, uninfected mice) was 62% and the Kp at 16 h ([1]; infected mice) was 2.13. It also gave a Kp at 18.5 h ([1]; infected mice) of 0.8, a Kp at 22 h ([1]; infected mice) of 0.3 and a Kp at 24 h ([1]; infected mice) of 0.95. For the same molecule, the Kp at 16 h ([1]; uninfected mice) was 1.02, the Kp at 18.5 h ([1]; uninfected mice) was 0.8 and the Kp at 24 h ([1]; uninfected mice) was 0.64. The “static % fT > MIC (CAZ)” value (P. aeruginosa; isolate no. 1) was “no effect”, the “static % fT > MIC (CAZ)” value (P. aeruginosa; isolate no. 3) was 0% and the “static % fT > MIC (CAZ)” value (P. aeruginosa; isolate no. 5) was 3%. For the same molecule, the “static % fT > MIC (CAZ)” value (P. aeruginosa; isolate no. 7) was 7.2%, the “static % fT > MIC (CAZ)” value (P. aeruginosa; isolate no. 11) was “no effect” and the “static % fT > MIC (CAZ)” value (P. aeruginosa; isolate no. 18) was 9%. For the same molecule, the “static % fT > MIC (CAZ)” value (P. aeruginosa; isolate no. 19) was 38%, the “MIC increase in pulmonary surfactant” value [2] was “no MIC increases were observed” and the fraction unbound [3] was 0.9.

In the case of NC(=O)[C@@H]1CC[C@@H]2CN1C(=O)N2OS(=O)(=O)[O-].[Na+] [avibactam, [(2S,5R)-2-carbamoyl-7-oxo-1,6-diazabicyclo[3.2.1]octan-6-yl]hydrogen sulfate], the “fT > MIC” value ([1]; MIC 4, ELF, infected mice) is reported as 3%, the “fT > MIC” value ([1]; MIC 4, ELF, uninfected mice) is reported as 19% and the “fT > MIC” value ([1]; MIC 4, Serum, infected mice) is reported as 34%. For the same molecule, the “fT > MIC” value ([1]; MIC 4, Serum, uninfected mice) was 19%, the Kp at 16 h ([1]; infected mice) was 0.59 and the Kp at 18.5 h ([1]; infected mice) was 0.66. It also gave a Kp at 22 h ([1]; infected mice) of 0.69, a Kp at 24 h ([1]; infected mice) of 0.8 and a Kp at 16 h ([1]; uninfected mice) of 0.86. It also gave a Kp at 18.5 h ([1]; uninfected mice) of 0.74, a Kp at 22 h ([1]; uninfected mice) of 0.93 and a Kp at 24 h ([1]; uninfected mice) of 0.95. For the same molecule, the “mean % fT>CT 1 mg/L for static effect” value (P. aeruginosa; [4]) was 36.3%, the “range of % fT>CT 1 mg/L for static effect” value (P. aeruginosa; [4]) was 14.1-62.5 and the “% fT>CT required to support a bacteriostatic effect” value (P. aeruginosa; strain 7, thigh) was 30.2. For the same molecule, the “% fT>CT required to support a bacteriostatic effect” value (P. aeruginosa; strain 18, thigh) was 74.1, the “% fT>CT required for static effect” value (P. aeruginosa; CT of 1 mg/L, dose fractionation studies, 2 strains, with ceftazidime q2h, thigh) was 30.2-74.1 and the “% fT > CT1 of avibactam associated with 24-h stasis, mean” value (P. aeruginosa; mean of 6 strains (sd 17.8), thigh infection, CT1 = 1 mg/L) was 36.3%. For the same molecule, the Emax model maximum (P. aeruginosa; strain 1) was 1.26, the Emax model minimum (P. aeruginosa; strain 1) was “≈′−727.5” and the “TDD AVI associated with 24-h stasis” value (P. aeruginosa; [5]) was 123.70 mg/kg. The “log TDD AVI associated with 24-h stasis” value (P. aeruginosa; [5]) was 2.09, the “% fT > CT1 of avibactam associated with 24-h stasis” value (P. aeruginosa; [5]) was 37.2% and the Emax model maximum (P. aeruginosa; strain 5) was “≈0.70”. For the same molecule, the Emax model minimum (P. aeruginosa; strain 5) was −3.25 (0.95), the “TDD AVI associated with 24-h stasis” value (P. aeruginosa; [6]) was 33.59 mg/kg and the “log TDD AVI associated with 24-h stasis” value (P. aeruginosa; [6]) was 1.53. The “% fT > CT1 of avibactam associated with 24-h stasis” value (P. aeruginosa; [6]) was 14.1%, the Emax model maximum (P. aeruginosa; strain 7) was 1.81 (0.29) and the Emax model minimum (P. aeruginosa; strain 7) was −2.83 (1.41). The “TDD AVI associated with 24-h stasis” value (P. aeruginosa; [7]) was 267.47 mg/kg, the “log TDD AVI associated with 24-h stasis” value (P. aeruginosa; [7]) was 2.43 and the “% fT > CT1 of avibactam associated with 24-h stasis” value (P. aeruginosa; [7]) was 50.4%. The Emax model maximum (P. aeruginosa; strain 11) was 1.40 (0.50), the Emax model minimum (P. aeruginosa; strain 11) was −2.95 (0.41) and the “TDD AVI associated with 24-h stasis” value (P. aeruginosa; [8]) was 77.88 mg/kg. The “log TDD AVI associated with 24-h stasis” value (P. aeruginosa; [8]) was 1.89, the “% fT > CT1 of avibactam associated with 24-h stasis” value (P. aeruginosa; [8]) was 29.1% and the Emax model maximum (P. aeruginosa; strain 18) was 0.83 (0.36). For the same molecule, the Emax model minimum (P. aeruginosa; strain 18) was −2.36 (0.23), the “TDD AVI associated with 24-h stasis” value (P. aeruginosa; [9]) was 58.91 mg/kg and the “log TDD AVI associated with 24-h stasis” value (P. aeruginosa; [9]) was 1.77. For the same molecule, the “% fT > CT1 of avibactam associated with 24-h stasis” value (P. aeruginosa; [9]) was 24.2%, the Emax model maximum (P. aeruginosa; strain 19) was 2.46 (0.22) and the Emax model minimum (P. aeruginosa; strain 19) was −1.42 (0.46). The “TDD AVI associated with 24-h stasis” value (P. aeruginosa; [10]) was 541.34 mg/kg, the “log TDD AVI associated with 24-h stasis” value (P. aeruginosa; [10]) was 2.73 and the “% fT > CT1 of avibactam associated with 24-h stasis” value (P. aeruginosa; [10]) was 62.5%. The “effect on ceftazidime static % fT>MIC” value (P. aeruginosa; thigh infection, all strains) was “reduced”, the “MIC increase in pulmonary surfactant” value [2] was “no MIC increases were observed” and the fraction unbound [3] was 0.92.
